Results reported in patent publication US10202361B2, “Pyridazinones as herbicides” (E I DU PONT DE NEMOURS AND COMPANY, priority 2014, dated 2019).
Where two headings read alike, the source gives them in different places.

Legend:
Type in all cases: in vivo
[1] = tested on: ragweed (common ragweed, Ambrosia elatior); test: Test C pre-/postemergence greenhouse herbicide test; details: Ambrosia artemisiifolia, post-emergence, Ragweed, Postemergence, read-out: Plant response rating
Method in brief: (§1)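 Visual ratings, 0 = no effect, 100 = complete control, vs untreated controls at 13–15 d. Pre: seeds in loam/sand. Post: 2–18 cm plants (1–4 leaf), peat/vermiculite mix. Surfactant-containing solvent formulation; greenhouse.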

[2] = tested on: blackgrass (Alopecurus myosuroides); test: as above; details: Alopecurus myosuroides, post-emergence, Blackgrass, Postemergence, read-out: Plant response rating
Method in brief: as §1

[3] = tested on: oat, wild (wild oat, Avena fatua); test: as above; details: Postemergence
Method in brief: as §1

[4] = tested on: wheat (winter wheat, Triticum aestivum); test: as above; details: Triticum aestivum, post-emergence, Wheat, Postemergence, read-out: Plant response rating
Method in brief: as §1

[5] = tested on: johnsongrass (Sorghum halepense); test: as above; details: Sorghum halepense, post-emergence, Johnsongrass, Postemergence, read-out: Plant response rating
Method in brief: as §1

[6] = tested on: pigweed (Amaranthus retroflexus); test: as above; details: Amaranthus retroflexus, post-emergence, Pigweed, Postemergence, read-out: Plant response rating
Method in brief: as §1

[7] = tested on: barnyardgrass (Echinochloa crus-galli); test: Test A pre-/postemergence greenhouse herbicide test; details: Echinochloa crus-galli, 240 h, 0 to 100 scale (0 no effect, 100 complete control), approx. 10 d, read-out: Plant response rating, Barnyardgrass; for pest or weed control at 125 g/ha: 125 g ai/ha; for pest or weed control at 500 g/ha: 500 g ai/ha
Method in brief: (§2)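 Greenhouse pre- and postemergence treatment in loam/sand soil, test chemicals in non-phytotoxic solvent with surfactant; postemergence plants 2–10 cm, one- to two-leaf stage. Visual injury rated after approximately 10 d versus untreated controls, 0 (no effect) to 100 (complete control).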

corn (Zea mays) = test: as above; details: Zea mays, 240 h, 0 to 100 scale (0 no effect, 100 complete control), approx. 10 d; for Corn plant response rating (crop injury, 0 = no effect, 100 = complete kill) at 125 g/ha: 125 g ai/ha; for Corn plant response rating (crop injury, 0 = no effect, 100 = complete kill) at 500 g/ha: 500 g ai/ha
Method in brief: as §2

[8] = tested on: pigweed (Amaranthus retroflexus); test: as above; details: Amaranthus retroflexus, 240 h, 0 to 100 scale (0 no effect, 100 complete control), approx. 10 d, read-out: Plant response rating, Pigweed; for pest or weed control at 125 g/ha: 125 g ai/ha; for pest or weed control at 500 g/ha: 500 g ai/ha
Method in brief: as §2

Cc1cc(Oc2ccnc(C(F)(F)F)c2)nn(-c2ccc(C(F)(F)F)cc2)c1=O [Compound 6, 4-methyl-2-[4-(trifluoromethyl)phenyl]-6-[[2-(trifluoromethyl)-4-pyridinyl]oxy]-3(2H)-pyridazinone]
pest or weed control at 31 g/ha ([1]; 31 g ai/ha): 50% | pest or weed control at 62 g/ha ([1]; 62 g ai/ha): 55% | pest or weed control at 125 g/ha ([1]; 125 g ai/ha): 80% | pest or weed control at 250 g/ha ([1]; 250 g ai/ha): 80% | pest or weed control at 31 g/ha ([2]; 31 g ai/ha): 30% | pest or weed control at 62 g/ha ([2]; 62 g ai/ha): 35% | pest or weed control at 125 g/ha ([2]; 125 g ai/ha): 35% | pest or weed control at 250 g/ha ([2]; 250 g ai/ha): 50% | Plant response rating ([3]; 31 g ai/ha): 20 | Plant response rating ([3]; 62 g ai/ha): 25 | Plant response rating ([3]; 125 g ai/ha): 25 | Plant response rating ([3]; 250 g ai/ha): 50 | plant injury at 31 g/ha ([4]; 31 g ai/ha): 10% | plant injury at 62 g/ha ([4]; 62 g ai/ha): 10% | plant injury at 125 g/ha ([4]; 125 g ai/ha): 15% | plant injury at 250 g/ha ([4]; 250 g ai/ha): 25% | pest or weed control at 31 g/ha ([5]; 31 g ai/ha): 5% | pest or weed control at 62 g/ha ([5]; 62 g ai/ha): 10% | pest or weed control at 125 g/ha ([5]; 125 g ai/ha): 20% | pest or weed control at 250 g/ha ([5]; 250 g ai/ha): 40% | pest or weed control at 31 g/ha ([6]; 31 g ai/ha): 85% | pest or weed control at 62 g/ha ([6]; 62 g ai/ha): 95% | pest or weed control at 125 g/ha ([6]; 125 g ai/ha): 95% | pest or weed control at 250 g/ha ([6]; 250 g ai/ha): 95% | pest or weed control at 125 g/ha ([7]; post-emergence, Postemergence): 50% | pest or weed control at 500 g/ha ([7]; post-emergence, Postemergence): 90% | pest or weed control at 125 g/ha ([7]; pre-emergence, Preemergence): 40% | pest or weed control at 500 g/ha ([7]; pre-emergence, Preemergence): 80% | Corn plant response rating (crop injury, 0 = no effect, 100 = complete kill) at 125 g/ha (corn (Zea mays); post-emergence, Postemergence): 40% | Corn plant response rating (crop injury, 0 = no effect, 100 = complete kill) at 500 g/ha (corn (Zea mays); post-emergence, Postemergence): 50% | Corn plant response rating (crop injury, 0 = no effect, 100 = complete kill) at 125 g/ha (corn (Zea mays); pre-emergence, Preemergence): 10% | Corn plant response rating (crop injury, 0 = no effect, 100 = complete kill) at 500 g/ha (corn (Zea mays); pre-emergence, Preemergence): 20% | pest or weed control at 125 g/ha ([8]; post-emergence, Postemergence): 100% | pest or weed control at 500 g/ha ([8]; post-emergence, Postemergence): 100% | pest or weed control at 125 g/ha ([8]; pre-emergence, Preemergence): 100% | pest or weed control at 500 g/ha ([8]; pre-emergence, Preemergence): 100%
